Consider four compounds from patent publication US5798350A, “Dopamine receptor ligands” (Allelix Biopharmaceuticals, Inc., priority 1996, dated 1998).

By Ki is commonly meant a dissociation constant, usually derived from enzyme kinetics or from competition with a known ligand. The low end stands for a stronger hold on the target, the high end for a looser hold on the target.

The target of test [1] is T1, human D2 receptor (short isoform) (Homo sapiens, UniProt P14416).
T1 construct: membrane homogenate, 3H-spiperone displacement
T1 sequence (P14416 with tags, fused parts or gaps DEL242-270): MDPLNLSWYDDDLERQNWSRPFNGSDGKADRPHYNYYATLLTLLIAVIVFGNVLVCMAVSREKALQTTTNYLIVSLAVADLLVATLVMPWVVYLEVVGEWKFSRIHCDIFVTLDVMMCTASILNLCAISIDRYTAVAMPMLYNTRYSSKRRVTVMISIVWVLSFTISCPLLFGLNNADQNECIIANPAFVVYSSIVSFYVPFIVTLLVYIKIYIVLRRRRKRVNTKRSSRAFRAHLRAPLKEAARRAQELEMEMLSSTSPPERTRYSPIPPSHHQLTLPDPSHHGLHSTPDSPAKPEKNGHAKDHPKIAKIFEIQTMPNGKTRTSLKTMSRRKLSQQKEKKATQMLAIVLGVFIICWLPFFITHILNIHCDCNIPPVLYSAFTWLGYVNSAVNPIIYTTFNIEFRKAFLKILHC
Description: D2 receptor binding, displacement of 3H-spiperone (GH4C1 cells), for D2/D4 selectivity. The settings on record: for D2/D4: D4 selectivity, ratio D2/D4. The method, then:
(§1) The potency of the test compound to reduce ^3 H-spiperone binding directly correlated to its binding affinity for the receptor.
GH4 C1 (rat pituitary) cells stably transfected with the human D2 receptor (short isoform) were grown in CO2 independent media in roller bottles (1500 cm^2) for 10 days. 100 μM ZnSO4 was added to the cells (the D2 promoter being zinc inducible). After 16 hours, fresh media was added to allow the cells to recover for 24 hours. The cells were harvested using versene and then centrifuged in a Sorval centrifuge for 10 minutes, at 5000 rpm (GS3 rotor). Pellets were quickly frozen in liquid nitrogen and stored at -80° C. until used in the binding assays. When used in the assay, cells were thawed on ice for 20 minutes. […] 10 mL of incubation buffer was added to the pellets which were then vortexed, resuspended and homogenized with a Kinematica CH-6010 Kriens-LU homogenizer for 15 seconds at setting 7. The receptor protein concentration was determined using the Pierce BCA assay.
(§2) Total Spiperone Binding Assay
(§3) The incubation was started by the addition of 500 μl (50 μg protein) membrane homogenate to a solution of 900 μl incubation buffer and 100 μl (0.25 nM final conc.) ^3 H-spiperone (90 Ci/mmol Amersham diluted in borosilicate glass vial) in 12×75 mm polypropylene tubes. The tubes were vortexed and incubated at room temperature for 90 minutes. The binding reaction was stopped by filtering using a Brandell Cell Harvester. The samples were filtered under vacuum over glass fibre filters (Whatman GF/B) presoaked for 2 hours in 0.3% polyethyleneimine (PEI) in 50 mM Tris buffer (pH7.4). The filters were then washed 3 times with 5 mL ice cold 50 mM Tris buffer (pH7.4). Individual filter disks were put in scintillation vials (Biovials, Bechman). Ready Protein Plus liquid scintillant (5 mL, Beckman) was added and the vials counted by liquid scintillation spectrophotometry (Beckman LSC 6500) after equilibrating for three hours at room temperature to determine total binding (BT).
Non-Specific Binding Assay for D2
This assay employed the same procedures as the non-specific binding assay for D4 with the exception that 2 μM (final conc.) of (-) sulpiride (Research Chemicals Inc.) was used in place of dopamine.
(§4) Displacement Binding Assay
(§5) The incubation was started by the addition to 12×75 mm polypropylene tubes 500 μl (50 μg protein) membrane homogenate to a solution of 400 μl incubation buffer, 100 μl (0.25 final conc.) ^3 H-spiperone (90Ci/mmol, Amersham, diluted in borosilicate glass vial to) and […] of test compound that was prepared from 1 mM stock dissolved in DMSO and stored at -20° C. in polypropylene cryogenic storage vials until dilution in incubation buffer in borosilicate glass vials. The tubes were vortexed and incubated at room temperature for 90 minutes at which time the binding reaction was stopped by filtering. The filters were washed and counted using the same procedure as in the total binding assay described above to give the displacement binding value (BD).
Specific binding in the absence of test compound (BO) was the difference of total binding (BT) minus non-specific binding (NSB) and similarly specific binding (in the presence of test compound) (B) was the difference of displacement binding (BD) minus non-specific binding (NSB). IC50 was determined from an inhibition response curve, logit-log plot of %B/BO vs concentration of test compound.
(§6) Ki was calculated by the Cheng and Prustoff transformation: […]
(§7) where [L] is the concentration of ^3 H-spiperone used in the assay and KD is the to dissociation constant of ^3 H-spiperone determined independently under the same binding conditions.
For orientation: Displacement assays read how much labelled ligand stays bound in the presence of the test substance.

Test [2] deals with T2, human D4 receptor (D4.2 sub-type) (Homo sapiens, UniProt P21917, DEL265-296).
T2 construct: expressed in transfected cells; host or cells: HEK 298 (human embryonic kidney) cells, [sic]; homogenate of stably transfected cells
T2 sequence (P21917 with tags, fused parts or gaps DEL265-296): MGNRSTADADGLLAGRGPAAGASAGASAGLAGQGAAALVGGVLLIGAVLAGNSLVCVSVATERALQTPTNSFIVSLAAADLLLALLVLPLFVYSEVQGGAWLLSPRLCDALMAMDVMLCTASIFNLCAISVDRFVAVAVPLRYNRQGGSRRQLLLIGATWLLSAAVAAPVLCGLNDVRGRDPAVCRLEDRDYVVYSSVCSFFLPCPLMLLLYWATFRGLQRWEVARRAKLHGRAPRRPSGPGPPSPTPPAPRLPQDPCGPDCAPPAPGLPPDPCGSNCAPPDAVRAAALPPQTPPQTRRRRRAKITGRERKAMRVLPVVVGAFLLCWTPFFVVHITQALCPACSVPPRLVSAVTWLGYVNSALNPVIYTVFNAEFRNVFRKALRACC
Nature of the test: D4 receptor binding, displacement of 3H-spiperone. The settings on record: for Ki: human D4 receptor, 3H-spiperone 0.25 nM. As for the experimental part: as §1
The cells were then centrifuged in a Sorval centrifuge for 10 minutes, 5000 rpm (GS3 rotor) and the pellets quickly frozen in liquid nitrogen and stored at -80° C. until used in binding assay. When used in the assay, cells were thawed on ice for 20 minutes and then 10 mL of incubation buffer (50 mM Tris, 1 mM EDTA, 4 mM MgCl2, 5 mM KCl, 1.5 mM CaCl2, 120 mM NaCl, pH7.4) was added. […] Concentration of receptor protein was determined using the Pierce BCA assay.
as §2
as §3, with “The” for “The incubation was started by the addition of 500 μl (50 μg protein) membrane homogenate to a solution of 900 μl incubation buffer and 100 μl (0.25 nM final conc.) ^3 H-spiperone (90 Ci/mmol Amersham diluted in borosilicate glass vial) in 12×75 mm polypropylene tubes. The”
Non-Specific Binding Assay for D4
The tubes were vortexed and incubated at room temperature for 90 minutes at which time the binding reaction was stopped by filtering. The filters were washed and counted using the same procedure as in the total binding assay described above to give the non-specific binding value (NSB).
as §4, §5
IC50 was determined from an inhibition response curve, logit-log plot of %B/BO vs concentration of test compound.
as §6, §7

Where [3] appears, read: compared with corresponding 4-methyl piperazine compound.

For `Clc1ccc2c(c1)C=C(N1CCN(Cc3ccc4c(c3)OCO4)CC1)c1ccccc1S2` [2-chloro-10-(4-piperonyl-1-piperazinyl)dibenzo[b,f]thiepine], the D2/D4 in test [1] is 15.9. In test [1] (compared with clozapine), the D4 selectivity entry was “better D4 selectivity than clozapine”. Further, in test [2], the Ki was determined as 8.3 nM.

As for `Clc1ccc2c(c1)N=C(N1CCN(Cc3ccc4c(c3)OCO4)CC1)c1ccccc1O2` [8-chloro-11-(4-piperonyl)-1-piperazinyl)dibenz[b,f][1,4]oxazepine], the D2/D4 in test [1] was 23.8. Besides, the D4 selectivity result was “better D4 selectivity than clozapine” in test [1] (compared with clozapine) and “better D4selectivity than the corresponding 4-methyl piperazine compound” in test [1] (setting [3]). For the same compound, the D4 affinity entry in test [2] (compared with clozapine) is “better D4 affinity than clozapine”. The “D4 affinity and selectivity” value in test [2] (compared with clozapine) was “better D4 affinity and selectivity than clozapine”; in test [2] (compared with clozapine and the corresponding 4-methyl compound), “better than clozapine and the corresponding 4-methyl compound”; in test [2] (setting [3]) it was “better D4 affinity and selectivity than the corresponding 4-methyl piperazine compound”. The same compound gave a Ki in test [2] of 4 nM.

With `Clc1ccc2c(c1)Nc1ccccc1N=C2N1CCN(Cc2ccc3c(c2)OCO3)CC1` [3-chloro-11-(4-piperonyl-1-piperazinyl)-5H-dibenzo[b,e][1,4]diazepine], the D2/D4 in test [1] stood at 24.9. Besides, in test [1] (compared with clozapine), the D4 selectivity result is listed as “better D4 selectivity than clozapine”. Further, the Ki in test [2] stood at 23.5 nM.

For `c1ccc2c(c1)N=C(N1CCN(Cc3ccc4c(c3)OCO4)CC1)c1ccccc1O2` [11-(4-piperonyl)-1-piperazinyl)-dibenz[b,f][1,4]oxazepine], the D2/D4 in test [1] came to 32.7. Moreover, the D4 selectivity result in test [1] (compared with clozapine) is given as “better D4 selectivity than clozapine”; in test [1] (setting [3]) it was “better D4selectivity than the corresponding 4-methyl piperazine compound”. Moreover, in test [2] (setting [3]), the “D4 affinity and selectivity” value is “better D4 affinity and selectivity than the corresponding 4-methyl piperazine compound”. In addition, the Ki in test [2] turned out to be 30 nM.
